# Test results: patent US9242984B2, “Pyrazolyl derivatives as Syk inhibitors” (Merck Sharp & Dohme Corp., priority 2012, dated 2016)
# Target: T1, recombinant human Syk (GST-hSyk fusion protein) (Homo sapiens, UniProt P43405)
# T1 construct: purchased Carna Biosciences 08-176
# Experiment: Homogeneous Time-Resolved Fluorescence (HTRF) assay for the recombinant human Syk enzyme
# Format: biochemical
# Details: 10-dose titration, 25 μM ATP; read-out: rhSYK IC50
# Method in brief: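 IC50 came from a four-parameter fit over ten doses, 10 μM to 0.508 nM, with HTRF read-out (Eu-anti-pTyr antibody, SA-APC, EDTA stop, 30 min). The enzyme, 5 pM GST-hSyk, met compound for 10 min, then phosphorylated 250 nM biotin-peptide with 25 μM ATP and 5 mM Mg for 45 min at room temperature, pH 7.5.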
row,IC50 [nM],SMILES
1,1.7,"Cc1cc(Nc2cc(C(F)(F)F)ccn2)nc(-c2cnn(CC(C)(O)CC#N)c2)c1 (single isomer, unassigned) [Example 20.1, (R or S)-3-Hydroxy-3-methyl-4-(4-(4-methyl-6-((4-(trifluoromethyl)pyridin-2-yl)amino)pyridin-2-yl)-1H-pyrazol-1-yl)butanenitrile]"
2,1.1,"Cc1cc(Nc2nccc(C(F)(F)F)n2)cc(-c2cnn(CC(O)C(N)=O)c2)c1 (single isomer, unassigned) [Example 7.1, (R or S)-2-hydroxy-3-[4-(3-methyl-5-{[4-(trifluoromethyl)pyrimidin-2-yl]amino}phenyl)-1H-pyrazol-1-yl]propanamide]"
3,13.9,"Cc1cc(Nc2nccc(C(F)(F)F)n2)cc(-c2cnn(CC3(O)CCN(C(N)=O)CC3)c2)c1 [Example 17, 4-hydroxy-4-((4-(3-methyl-5-((4-(trifluoromethyl)pyrimidin-2-yl)amino)phenyl)-1H-pyrazol-1-yl)methyl)piperidine-1-carboxamide]"

# Same assay, conditions: IC50 class; 10-dose titration, 25 μM ATP; read-out: rhSYK Activity
row,SMILES,IC50 [nM]
1,"Cc1cc(Nc2nccc(C(F)(F)F)n2)cc(-c2cnn(CC3OC(=O)NC3(C)C)c2)c1 (centres unmarked) [Example 3.100, 4,4-dimethyl-5-{[4-(3-methyl-5-{[4-(trifluoromethyl)pyrimidin-2-yl]amino}phenyl)-1H-pyrazol-1-yl]methyl}-1,3-oxazolidin-2-one]",≤ 100
2,"Cc1cc(Nc2nccc(C(F)(F)F)n2)cc(-c2ccnn2C(C)C)c1 [Example 1.8, N-{3-methyl-5-[1-(1-methylethyl)-1H-pyrazol-5-yl]phenyl}-4-(trifluoromethyl)pyrimidin-2-amine]",100 to 1000
3,"O=C1NCC(Cn2cc(-c3cccc(Nc4nccc(C(F)(F)F)n4)c3)cn2)O1 (centres unmarked) [Example 2.34, 5-{[4-(3-{[4-(trifluoromethyl)pyrimidin-2-yl]amino}phenyl)-1H-pyrazol-1-yl]methyl}-1,3-oxazolidin-2-one]",≤ 100
4,"COc1nc(Nc2cc(C)cc(-c3cnn(C[C@](C)(O)CO)c3)c2)ncc1Cl [Example 2.98, (2S)-3-(4-{3-[(5-chloro-4-methoxypyrimidin-2-yl)amino]-5-methylphenyl}-1H-pyrazol-1-yl)-2-methylpropane-1,2-diol]",≤ 100
5,"COc1ccnc(Nc2cc(C)cc(-c3cnn(CC4CNC(=O)O4)c3)c2)n1 (centres unmarked) [Example 2.17, 5-[(4-{3-[(4-methoxypyrimidin-2-yl)amino]-5-methylphenyl}-1H-pyrazol-1-yl)methyl]-1,3-oxazolidin-2-one]",≤ 100
6,"Cc1cc(Nc2nccc(C(F)(F)F)n2)cc(-c2cn[nH]c2)c1 [Example 1.6, N-[3-methyl-5-(1H-pyrazol-4-yl)phenyl]-4-(trifluoromethyl)-pyrimidin-2-amine]",≤ 100
7,"CCOC(=O)CCn1cc(-c2cc(C)cc(Nc3nccc(C)n3)c2)cn1 [Example 2.42, ethyl 3-(4-{3-methyl-5-[(4-methylpyrimidin-2-yl)amino]phenyl}-1H-pyrazol-1-yl)propanoate]",≤ 100
8,"CCOC(=O)CCn1cc(-c2cc(C)cc(Nc3nccc(C4CC4)n3)c2)cn1 [Example 2.41, ethyl 3-(4-{3-[(4-cyclopropylpyrimidin-2-yl)amino]-5-methylphenyl}-1H-pyrazol-1-yl)propanoate]",< 1000
9,"Cc1cc(Nc2nccc(C(F)(F)F)n2)cc(-c2cnn(CC3(C)CNC(=O)O3)c2)c1 (centres unmarked) [Example 3.118, 5-methyl-5-{[4-(3-methyl-5-{[4-(trifluoromethyl)pyrimidin-2-yl]amino}phenyl)-1H-pyrazol-1-yl]methyl}-1,3-oxazolidin-2-one]",≤ 100
10,"CCOC(=O)CCn1cc(-c2cccc(Nc3cc(C(F)(F)F)ccn3)n2)cn1 [Example 1.24, ethyl 3-[4-(6-{[4-(trifluoromethyl)pyridin-2-yl]amino}pyridin-2-yl)-1H-pyrazol-1-yl]propanoate]",100 to 1000
11,"COc1nc(Nc2cc(C)cc(-c3cnn(C[C@](C)(O)CO)c3)c2)ncc1F [Example 2.89, (2S)-3-(4-{3-[(5-fluoro-4-methoxypyrimidin-2-yl)amino]-5-methylphenyl}-1H-pyrazol-1-yl)-2-methylpropane-1,2-diol]",≤ 100
12,"Cc1cc(Nc2nccc(C(F)(F)F)n2)cc(-c2cnn(CCCC(=O)O)c2)c1 [Example 3.50, 4-[4-(3-methyl-5-{[4-(trifluoromethyl)-pyrimidin-2-yl]amino}-phenyl)-1H-pyrazol-1-yl]butanoic acid]",≤ 100
13,"Cc1cc(Nc2nccc(C(C)(F)F)n2)cc(-c2cnn(CC3CNC(=O)O3)c2)c1 (centres unmarked) [Example 3.126, 5-{[4-(3-{[4-(1,1-difluoroethyl)pyrimidin-2-yl]amino}-5-methylphenyl)-1H-pyrazol-1-yl]methyl}-1,3-oxazolidin-2-one]",≤ 100
14,"Cc1cc(Nc2ncccn2)cc(-c2cnn(CC3CNC(=O)O3)c2)c1 (centres unmarked) [Example 3.115, 5-({4-[3-methyl-5-(pyrimidin-2-ylamino)phenyl]-1H-pyrazol-1-yl}methyl)-1,3-oxazolidin-2-one]",≤ 100
15,"O=C(O)C1CCC(n2cc(-c3cc(Cl)cc(Nc4nccc(C(F)(F)F)n4)c3)cn2)CC1 (centres unmarked) [Example 1.60, 4-[4-(3-chloro-5-{[4-(trifluoromethyl)pyrimidin-2-yl]amino}phenyl)-1H-pyrazol-1-yl]cyclohexanecarboxylic acid]",≤ 100
16,"Cc1cc(Nc2nccc(C(F)(F)F)n2)cc(-c2cnn(C3CCC(C(=O)OC(C)(C)C)CC3)c2)c1 (centres unmarked) [Example 1.4, tert-butyl 4-[4-(3-methyl-5-{[4-(trifluoromethyl)-pyrimidin-2-yl]amino}-phenyl)-1H-pyrazol-1-yl]-cyclohexanecarboxylate]",1000 to 10000
17,"Cc1cc(Nc2cc(C(F)(F)F)ccn2)nc(-c2ccnn2C)n1 [Example 1.45, 6-methyl-2-(1-methyl-1H-pyrazol-5-yl)-N-[4-(trifluoro-methyl)pyridin-2-yl]pyrimidin-4-amine]",100 to 1000
18,"Cc1cc(Nc2nccc(C(F)(F)F)n2)cc(-c2cnn(CCCO)c2)c1 [Example 3.31, 3-[4-(3-methyl-5-{[4-(trifluoromethyl)pyrimidin-2-yl]amino}-phenyl)-1H-pyrazol-1-yl]propan-1-ol]",≤ 100
19,"Cc1cc(Nc2nccc(C(F)(F)F)n2)cc(-c2cnn(CC3(O)CCN(C(N)=O)CC3)c2)c1 [Example 17, 4-hydroxy-4-((4-(3-methyl-5-((4-(trifluoromethyl)pyrimidin-2-yl)amino)phenyl)-1H-pyrazol-1-yl)methyl)piperidine-1-carboxamide]",≤ 100
20,"Cc1cc(Nc2nccc(C(F)F)n2)cc(-c2cnn(CC3CC(=O)NC34CC4)c2)c1 (centres unmarked) [Example 3.90, 7-{[4-(3-{[4-(difluoromethyl)pyrimidin-2-yl]amino}-5-methylphenyl)-1H-pyrazol-1-yl]methyl}-4-azaspiro[2.4]heptan-5-one]",≤ 100

# Next, values leading:
row,IC50 [nM],SMILES
1,≤ 100,"Cc1cc(Nc2nccc(C(F)(F)F)n2)cc(-c2cnn(CC3(O)CCCOC3)c2)c1 (centres unmarked) [Example 12.7, 3-{[4-(3-methyl-5-{[4-(trifluoromethyl)pyrimidin-2-yl]amino}phenyl)-1H-pyrazol-1-yl]methyl}-tetrahydro-2H-pyran-3-ol]"
2,≤ 100,"Cc1cc(Nc2cc(C(F)(F)F)ccn2)nc(-c2cnn(CC(C)(O)CC#N)c2)c1 (centres unmarked) [Example 20.4, 3-hydroxy-3-methyl-4-[4-(4-methyl-6-{[4-(trifluoromethyl)pyridin-2-yl]amino}pyridin-2-yl)-1H-pyrazol-1-yl]butanenitrile]"
3,≤ 100,"Cc1cc(Nc2nccc(C(F)(F)F)n2)cc(-c2cnn(C(C)C(C)(O)CO)c2)c1 (single isomer, unassigned) [Example 21.11, 2-methyl-3-[4-(3-methyl-5-{[4-(trifluoromethyl)pyrimidin-2-yl]amino}phenyl)-1H-pyrazol-1-yl]butane-1,2-diol]"
4,≤ 100,"Cc1cc(Nc2nccc(C(F)(F)F)n2)cc(-c2cnn(C[C@H](N)C(N)=O)c2)c1 [Example 7.2, 3-[4-(3-methyl-5-{[4-(trifluoro-methyl)pyrimidin-2-yl]amino}phenyl)-1H-pyrazol-1-yl]-1-alaninamide]"
5,≤ 100,"Cc1cc(Nc2nccc(C(F)F)n2)cc(-c2cnn(CCNC(=O)NC(C)(C)C)c2)c1 [Example 27.15, 1-tert-butyl-3-{2-[4-(3-{[4-(difluoromethyl)pyrimidin-2-yl]amino}-5-methylphenyl)-1H-pyrazol-1-yl]ethyl}urea]"
6,≤ 100,"OC1(Cn2cc(-c3cccc(Nc4nccc(C(F)F)n4)c3)cn2)CCC1 [Example 29.4, 1-{[4-(3-{[4-(difluoromethyl)pyrimidin-2-yl]amino}phenyl)-1H-pyrazol-1-yl]methyl}cyclobutanol]"
7,≤ 100,"Cc1cc(Nc2cc(C(F)(F)F)ccn2)nc(-c2cnn(CC(C)(O)CC#N)c2)c1 (single isomer, unassigned) [Example 20.1, (R or S)-3-Hydroxy-3-methyl-4-(4-(4-methyl-6-((4-(trifluoromethyl)pyridin-2-yl)amino)pyridin-2-yl)-1H-pyrazol-1-yl)butanenitrile]"
8,≤ 100,"Cc1cc(Nc2nccc(C(F)F)n2)cc(-c2cnn(CC(O)CNC(=O)OC(C)(C)C)c2)c1 (centres unmarked) [Example 5.21, tert-butyl {3-[4-(3-{[4-(difluoromethyl)pyrimidin-2-yl]amino}-5-methylphenyl)-1H-pyrazol-1-yl]-2-hydroxypropyl}carbamate]"
9,≤ 100,"Cc1cc(Nc2nccc(C(F)F)n2)cc(-c2cnn(CC3OC(=O)NC3C)c2)c1 (single isomer, unassigned) [Example 23.10, 5-{[4-(3-{[4-(difluoromethyl)pyrimidin-2-yl]amino}-5-methylphenyl)-1H-pyrazol-1-yl]methyl}-4-methyl-1,3-oxazolidin-2-one]"
10,≤ 100,"Cc1cc(Nc2nccc(C(F)(F)F)n2)cc(-c2cnn(CC(O)C(N)=O)c2)c1 (single isomer, unassigned) [Example 7.1, (R or S)-2-hydroxy-3-[4-(3-methyl-5-{[4-(trifluoromethyl)pyrimidin-2-yl]amino}phenyl)-1H-pyrazol-1-yl]propanamide]"
11,≤ 100,"Cc1cc(Nc2nccc(C(F)F)n2)cc(-c2cnn(CC3OC(=O)NC3CO)c2)c1 (single isomer, unassigned) [Example 33.3, 5-{[4-(3-{[4-(difluoromethyl)pyrimidin-2-yl]amino}-5-methylphenyl)-1H-pyrazol-1-yl]methyl}-4-(hydroxymethyl)-1,3-oxazolidin-2-one]"
12,≤ 100,"Cc1cc(Nc2nccc(C(F)(F)F)n2)cc(-c2cnn(C(C)C3(O)CCOCC3)c2)c1 (centres unmarked) [Example 12.14, 4-{1-[4-(3-methyl-5-{[4-(trifluoromethyl)pyrimidin-2-yl]amino}phenyl)-1H-pyrazol-1-yl]ethyl}-tetrahydro-2H-pyran-4-ol]"
